According to patent US20100234419A1, “SUBSTITUTED 3-AMINOISOXAZOLOPYRIDINES AS KCNQ2/3 MODULATORS” (GRUNENTHAL GMBH, priority 2009, published 2010):

Biological target: T1, KCNQ2/3 channels (Homo sapiens, UniProt O43525+O43526)
T1 construct: expressed in transfected cells; host or cells: CHO-K1 cells, kept under selection antibiotics
Assay: Fluorescence assay using a voltage sensitive dye (fluorimetry)
Type: cell-based
Settings: for Emax at 10 µM: relative to retigabine = 100%, read-out: Fluorimetry % efficacy @ 10 μM (retigabine = 100%); for Emax at 10 µM / EC50: CHO-K1 cells expressing KCNQ2/3; for KCNQ2/3 stimulation at 10 μM: Table 4 comparison experiments; for activity towards the KCNQ2/3 receptor: nitrogen atom introduced into the phenyl ring of the benzoisoxazole structure
Description: […] CHO-K1 cells expressing KCNQ2/3 channels are cultivated adherently at 37° C., 5% CO2 and 95% humidity in cell culture bottles (e.g. 80 cm^2 TC flasks, Nunc) with DMEM-high glucose (Sigma Aldrich, D7777) including 10% FCS (PAN Biotech, e.g. 3302-P270521) or alternatively MEM Alpha Medium (1×, liquid, Invitrogen, #22571), 10% fetal calf serum (FCS) (Invitrogen, #10270-106, heat-inactivated) and the necessary selection antibiotics.
Before being sown out for the measurements, the cells are washed with a 1×DPBS buffer without Ca^2+/Mg^2+ (e.g. Invitrogen, #14190-094) and detached from the bottom of the culture vessel by means of Accutase (PAA Laboratories, #L11-007) (incubation with Accutase for 15 min at 37° C.). The cell count then present is determined using a CASY™ cell counter (TCC model, Scharfe System) in order subsequently to apply, depending on the density optimization for the individual cell line, 20,000-30,000 cells/well/100 μl of the described nutrient medium to 96-well measuring plates of the Corning™ CelIBIND™ type (Flat Clear Bottom Black Polystyrene Microplates, #3340). Incubation is then carried out for one hour at room temperature, without gassing or adjusting the humidity, followed by incubation for 24 hours at 37° C., 5% CO2 and 95% humidity.
The voltage-sensitive fluorescent dye from the Membrane Potential Assay Kit (Red™ Bulk format part R8123 for FLIPR, MDS Analytical Technologies™) is prepared by dissolving the contents of a vessel Membrane Potential Assay Kit Red Component A in 200 ml of extracellular buffer (ES buffer, 120 mM NaCl, 1 mM KCl, 10 mM HEPES, 2 mM CaCl2, 2 mM MgCl2, 10 mM glucose; pH 7.4). After removal of the nutrient medium, the cells are washed with 200 μl of ES buffer, then covered with a layer of 100 μl of the dye solution prepared above and incubated for 45 min at room temperature with the exclusion of light.
The fluorescence measurements are carried out with a BMG Labtech FLUOstar™ BMG Labtech NOVOstar™ or BMG Labtech POLARstar™ instrument (525 nm excitation, 560 nm emission, Bottom Read mode). After incubation of the dye, 50 μl of the test substances in the desired concentrations, or 50 μl of ES buffer for control purposes, are introduced into separate cavities of the measuring plate and incubated for 30 min at room temperature while being shielded from light. The fluorescence intensity of the dye is then measured for 5 min and the fluorescence value F1 of each well is thus determined at a given, constant time. […] of a 100 mM KCl solution (final concentration […]) are then added to each well. The change in fluorescence is subsequently measured until all the relevant measured values have been obtained (mainly 5-30 min). At a given time after KCl application, a fluorescence value F2 is determined, in this case at the time of the fluorescence peak.
For calculation, the fluorescence intensity F2 is compared with the fluorescence intensity F1, and the agonistic activity of the target compound on the potassium channel is determined therefrom. F2 and F1 are calculated as follows: […]
Calculations of EC50 values are carried out with the aid of ‘Prism v4.0’ software (GraphPad Software™).

Emax at 10 µM [%] | KCNQ2/3 stimulation at 10 μM [%] | activity towards the KCNQ2/3 receptor | EC50 [nM] | Structure (SMILES)
39 | 39 | still present |  | FC(F)(F)Sc1ccc(CNc2noc3ccncc23)cc1 [Exemplary compound 12, N-(4-(trifluoromethylthio)benzyl)-isoxazolo[4,5-c]pyridin-3-amine]
27 |  |  |  | FC(F)(F)Sc1ccc(CNc2noc3c(C(F)(F)F)nccc23)cc1 [Exemplary compound 23, N-(4-(trifluoromethylthio)benzyl)-7-trifluoromethyl-isoxazolo[5,4-c]pyridin-3-amine]
19 |  |  |  | FC(F)(F)Sc1ccc(CNc2noc3ccnc(Cl)c23)cc1 [Exemplary compound 25, 4-chloro-N-(4-(trifluoromethylthio)benzyl)-isoxazolo[4,5-c]pyridin-3-amine]
65 | 65 | still present |  | FC(F)(F)Sc1ccc(CNc2noc3cnccc23)cc1 [Exemplary compound 6, N-(4-(trifluoromethylthio)benzyl)-isoxazolo[5,4-c]pyridin-3-amine]
 | 75 |  |  | FC(F)(F)Sc1ccc(CNc2noc3ccccc23)cc1 [E1, reference compound]
77 | 77 | still present | 1690 | FC(F)(F)Sc1ccc(CNc2noc3ncccc23)cc1 [Exemplary compound 2, N-(4-(Trifluoromethylthio)benzyl)-isoxazolo[5,4-b]pyridin-3-amine]
86 | 86 | still present |  | FC(F)(F)Sc1ccc(CNc2noc3cccnc23)cc1 [Exemplary compound 9, N-(4-(trifluoromethylthio)benzyl)-isoxazolo[4,5-b]pyridin-3-amine]

The next lines start with the compound.

Structure (SMILES) | Emax at 10 µM [%] | KCNQ2/3 stimulation at 10 μM [%] | activity towards the KCNQ2/3 receptor | EC50 [nM]
Cc1cc(C)cc(C(C)Nc2noc3cccnc23)c1 (stereo not drawn) [Exemplary compound 10, N-(1-(3,5-dimethyl-phenyl)ethyl)-isoxazolo[4,5-b]pyridin-3-amine] | 27 |  |  | 
Cc1cc(C)cc(CNc2noc3ncccc23)c1 [Exemplary compound 3, N-(3,5-dimethyl-benzyl)isoxazolo[5,4-b]pyridin-3-amine] | 34 |  |  | 
Cc1cc(C)cc(C(C)Nc2noc3c(C(F)(F)F)nccc23)c1 (stereo not drawn) [Exemplary compound 21, N-(1-(3,5-dimethyl-phenyl)ethyl)-7-trifluoromethyl-isoxazolo[5,4-c]pyridin-3-amine] | 39 |  |  | 
Cc1cc(C)cc(C(C)Nc2noc3nc(C(F)(F)F)ccc23)c1 (stereo not drawn) [Exemplary compound 18, N-(1-(3,5-dimethylphenyl)ethyl)-6-(trifluoromethyl)isoxazolo[5,4-b]-pyridin-3-amine] | 43 |  |  | 
CC(Nc1noc2ncccc12)c1ccc(C(F)(F)F)cc1 (stereo not drawn) [Exemplary compound 1, N-(1-(4-(trifluoromethyl)phenyl)ethyl)-isoxazolo[5,4-b]pyridin-3-amine] | 43 |  |  | 
CC(Nc1noc2ncccc12)c1ccc(SC(F)(F)F)cc1 (stereo not drawn) [Exemplary compound 5, N-(1-(4-(trifluoromethylthio)phenyl)ethyl)-isoxazolo[5,4-b]pyridin-3-amine] | 97 |  |  | 
Cc1cc(C)cc(CNc2noc3cnccc23)c1 [Exemplary compound 7, N-(3,5-dimethyl-benzyl)isoxazolo[5,4-c]pyridin-3-amine] | 29 |  |  | 
Cc1cc(C)cc(C(C)Nc2noc3cnccc23)c1 (stereo not drawn) [Exemplary compound 15, N-(1-(3,5-dimethyl-phenyl)ethyl)-isoxazolo[5,4-c]pyridin-3-amine] | 73 |  |  | 
FC(F)(F)Sc1ccc(CNc2noc3nc4ccccc4cc23)cc1 [Exemplary compound 24, N-(4-(trifluoromethylthio)benzyl)-isoxazolo[5,4-b]quinolin-3-amine] | 38 |  |  | 411
CC(Nc1noc2cnccc12)c1ccc(C(F)(F)F)cc1 (stereo not drawn) [Exemplary compound 14, N-(1-(4-(trifluoromethyl)phenyl)-ethyl)isoxazolo[5,4-c]pyridin-3-amine] | 78 |  |  | 
Cc1ccc2c(NCc3ccc(SC(F)(F)F)cc3)noc2n1 [Exemplary compound 20, 6-methyl-N-(4-(trifluoromethylthio)benzyl)-isoxazolo[5,4-b]pyridin-3-amine] | 49 |  |  | 
Cc1cc(C)cc(C(C)Nc2noc3nc(C)ccc23)c1 (stereo not drawn) [Exemplary compound 22, N-(1-(3,5-dimethylphenyl)ethyl)-6-methyl-isoxazolo[5,4-b]pyridin-3-amine] | 49 |  |  | 231
CC(Nc1noc2ccncc12)c1ccc(SC(F)(F)F)cc1 (stereo not drawn) [Exemplary compound 17, N-(1-(4-(trifluoromethylthio)phenyl)ethyl)-isoxazolo[4,5-c]pyridin-3-amine] | 49 |  |  | 899
Cc1cc(C)cc(C(C)Nc2noc3ccncc23)c1 (stereo not drawn) [Exemplary compound 16, N-(1-(3,5-dimethyl-phenyl)ethyl)-isoxazolo[4,5-c]pyridin-3-amine] | 15 |  |  | 
Cc1cc(C)cc(C(C)Nc2noc3ncccc23)c1 (stereo not drawn) [Exemplary compound 4, N-(1-(3,5-dimethyl-phenyl)ethyl)-isoxazolo[5,4-b]pyridin-3-amine] | 65 |  |  | 
CC(Nc1noc2cccnc12)c1ccc(SC(F)(F)F)cc1 (stereo not drawn) [Exemplary compound 13, N-(1-(4-(trifluoromethylthio)phenyl)-ethyl)isoxazolo[4,5-b]pyridin-3-amine] | 50 |  |  | 
FC(F)(F)Sc1ccc(CNc2noc3nc(C(F)(F)F)ccc23)cc1 [Exemplary compound 19, N-(4-(trifluoromethylthio)benzyl)-6-trifluoromethyl-isoxazolo[5,4-b]pyridin-3-amine] | 41 |  |  | 
